In patent EP3829579B1, “1,3,8-TRIAZASPIRO COMPOUNDS AND THEIR USE AS MEDICAMENTS FOR THE TREATMENT OF REPERFUSION INJURY” (Maria Cecilia Hospital S.p.A., priority 2018, dated 2020):

Assays:
[1] = system: ATP synthesis; experiment: luciferin-luciferase assay of mitochondrial ATP; format: cell-based; conditions: living cells, basal conditions and following Ca2+-dependent stimulus
From the text: (§1) The data were obtained by recording the absorbance changes at 540 nm at the tenth minute of measurement, and subsequently converted to a percentage. Black bar: untreated and unstimulated mitochondria; black control bar: untreated and Ca2+ stimulated mitochondria; dark grey bar: pre-treatment with CsA and stimulation with Ca2+; light bar: pre-treatment with RR and stimulation with Ca2+; first white bar from the top: treatment with compound 1 and stimulation with Ca2+; white bars: pre-treatment with the compounds of the invention and stimulation with Ca2+. […] The subcellular localization of compound 1 was studied by HPLC-HRMS analysis of samples from different cellular compartments, before and after treatment with the compound. […] The grey region of the HPLC spectrum corresponds to a single mass peak at [M+1]+ m/z of 386.1534 (lower panel, [M+H]+ calculated for compound 1 = 386.1533). […] The grey band of the HPLC spectrum corresponds to a mixture of mass peaks detected through the HRMS analysis (lower panel). C: HPLC-HRMS profile of the mitochondrial fraction isolated from cells pre-treated with compound 1 which clearly indicates the presence of the compound with an HPLC band at a retention time of 8.2 min (upper panel). The grey area of the signal corresponds to a mixture of mass peaks (lower panel) among which [M+1]+ m/z of 386.1534, which identifies the undetectable compound 1 in the corresponding untreated fraction (panel B). […] A: Content of mitochondrial ATP in living cells under basal conditions, evaluated based on the luciferase-luciferin protocol. B: Mitochondrial ATP production following stimulation by a Ca2+ dependent agonist. "Histamine" indicates stimulus with histamine. C: MTT cell viability assay after 24h, 48h and 72h of treatment of live cells with compounds of Formula (I) at different concentrations. In particular, black bar: cells treated with vehicle; dotted bars: compound at the concentration of 1 µM; bars with small black and white squares: compound at a concentration of 5 µM; bars with large black and white squares: compound at a concentration of 10 µM. A standardization was carried out with respect to the vehicle. […] A: Diagram depicting an experiment on an isolated rat heart by the Langendorff system. B: Coronary artery perfusion pressure (CPP) recorded on rat heart in conditions of stabilization, ischemia and reperfusion. C: Pressure developed by the left ventricle (LVPdp) recorded under the same conditions as B. D: End-diastolic pressure recorded in the same conditions as B and C. E: TUNEL apoptotic assay for the evaluation of the cardioprotective effect in cardiomyocytes of the heart.**:p value<0.01; ****:p value<0.0001.
(§2) Compounds 5c, 6g and 10 resulted to be very potent in inhibiting mPTP in the in vitro tests. In order to identify any side effects in the use of these compounds in living cells that could exclude their future development in therapy, and given the crucial role of the C subunit of the ATP synthase in energy production, two important parameters were evaluated, such as cell viability and mitochondrial ATP content, in basal conditions and following Ca^2+-dependent stimulus (Figure 5A-C).

[2] = system: mPTP; experiment: mitochondrial swelling assay (absorbance at 540 nm, Ca2+ stimulation); format: biochemical; conditions: mitochondria isolated from mouse liver, monitored for 10 minutes
From the text: as §1, with “E: TUNEL apoptotic assay for the evaluation of the cardioprotective effect in cardiomyocytes of the heart.**:p value<0.01; ****:p value<0.0001.” left out
Mitochondria isolated from mouse liver were checked for purity (Figure 3A) and functionality thereof, and then stimulated with Ca^2+; the decrease in absorbance at 540 nm, indicative of mitochondrial swelling, was monitored for 10 minutes.

[3] = subcellular fractionation with HPLC-HRMS detection (subcellular localization); format: cell-based; conditions: cells pre-treated with compound, mitochondria, cytosol and endoplasmic reticulum fractions
From the text: The data were obtained by recording the absorbance changes at 540 nm at the tenth minute of measurement, and subsequently converted to a percentage. Black bar: untreated and unstimulated mitochondria; black control bar: untreated and Ca2+ stimulated mitochondria; dark grey bar: pre-treatment with CsA and stimulation with Ca2+; light bar: pre-treatment with RR and stimulation with Ca2+; first white bar from the top: treatment with compound 1 and stimulation with Ca2+; white bars: pre-treatment with the compounds of the invention and stimulation with Ca2+. […] The grey region of the HPLC spectrum corresponds to a single mass peak at [M+1]+ m/z of 386.1534 (lower panel, [M+H]+ calculated for compound 1 = 386.1533). […] The grey band of the HPLC spectrum corresponds to a mixture of mass peaks detected through the HRMS analysis (lower panel). […] A: Content of mitochondrial ATP in living cells under basal conditions, evaluated based on the luciferase-luciferin protocol. […] B: Coronary artery perfusion pressure (CPP) recorded on rat heart in conditions of stabilization, ischemia and reperfusion. C: Pressure developed by the left ventricle (LVPdp) recorded under the same conditions as B. D: End-diastolic pressure recorded in the same conditions as B and C. […]

[4] = system: mPTP; experiment: cobalt-calcein assay of Ca2+-induced mPTP opening in HeLa cells (ionomycin stimulation); format: cell-based; conditions: pre-treatment 1 µM, assessed by the kinetics slope
[5] = system: release of cytochrome C (Cyt.C) from the mitochondria; experiment: detection of cytochrome c in the mitochondrial fraction under Ca2+-dependent stress; format: cell-based; conditions: Ca2+-dependent stress conditions
[6] = system: live cells; experiment: MTT cell viability assay; format: cell-based; conditions: micromolar concentrations (1, 5, 10 µM); for reduction of MTT compared to the control: 24h and 48h; for effect on cell viability (MTT): after 72h
From the text: (§3) The data were obtained by recording the absorbance changes at 540 nm at the tenth minute of measurement, and subsequently converted to a percentage. Black bar: untreated and unstimulated mitochondria; black control bar: untreated and Ca2+ stimulated mitochondria; dark grey bar: pre-treatment with CsA and stimulation with Ca2+; light bar: pre-treatment with RR and stimulation with Ca2+; first white bar from the top: treatment with compound 1 and stimulation with Ca2+; white bars: pre-treatment with the compounds of the invention and stimulation with Ca2+. […] The subcellular localization of compound 1 was studied by HPLC-HRMS analysis of samples from different cellular compartments, before and after treatment with the compound. […] The grey region of the HPLC spectrum corresponds to a single mass peak at [M+1]+ m/z of 386.1534 (lower panel, [M+H]+ calculated for compound 1 = 386.1533). […] The grey band of the HPLC spectrum corresponds to a mixture of mass peaks detected through the HRMS analysis (lower panel). C: HPLC-HRMS profile of the mitochondrial fraction isolated from cells pre-treated with compound 1 which clearly indicates the presence of the compound with an HPLC band at a retention time of 8.2 min (upper panel). The grey area of the signal corresponds to a mixture of mass peaks (lower panel) among which [M+1]+ m/z of 386.1534, which identifies the undetectable compound 1 in the corresponding untreated fraction (panel B). […] A: Content of mitochondrial ATP in living cells under basal conditions, evaluated based on the luciferase-luciferin protocol. B: Mitochondrial ATP production following stimulation by a Ca2+ dependent agonist. "Histamine" indicates stimulus with histamine. C: MTT cell viability assay after 24h, 48h and 72h of treatment of live cells with compounds of Formula (I) at different concentrations. […] B: Coronary artery perfusion pressure (CPP) recorded on rat heart in conditions of stabilization, ischemia and reperfusion. C: Pressure developed by the left ventricle (LVPdp) recorded under the same conditions as B. D: End-diastolic pressure recorded in the same conditions as B and C. […]
as §2

[7] = system: rat isolated heart; experiment: isolated rat heart ischemia-reperfusion (Langendorff system), with TUNEL assay; format: in vivo; conditions: ex vivo
From the text: as §3
Considering the potential of the inhibitors claimed herein in relation to: i) ability to desensitize the opening of mPTP; ii) ability to protect against cell death by inhibiting the release of Cyt.C; iii) ability to preserve cell viability, and iv) mitochondrial ATP content, the effects of compound 10 were studied in an animal model of cardiac ischemia-reperfusion. […] At the end of the procedure, the hearts were also analyzed for cell death by terminal deoxynucleotidyl transferase dUTP nick-end labelling (TUNEL) assay.

[8] = 10 µM constant-volume perfusion during the first 10 minutes of reperfusion, 30 minutes ischemia, 1 hour reperfusion

Row | Structure (SMILES) | proton flow and ATP synthesis / ATP levels [1] | inhibition of Ca2+-induced mPTP opening (mitochondrial swelling, decrease in absorbance at 540 nm) [2] | release of Cyt.C from the mitochondria [5] | reduction of MTT compared to the control [6] | effect on cell viability (MTT) [6] | also measured
1 | CC[C@H]1/C=C/C=C/C[C@@H](C)[C@H](O)[C@@](C)(O)C(=O)[C@@H](C)[C@H](O)[C@@H](C)C(=O)[C@@H](C)[C@H](O)[C@@H](C)/C=C/C(=O)O[C@@H]2[C@H](C)[C@H](CC1)O[C@]1(CC[C@H](C)[C@H](C[C@@H](C)O)O1)[C@H]2C [Oligomycin, reference compound] | significantly inhibited |  |  |  |  | 
2 | N.N.N.N.N.N.N.N.N.N.N.N.N.N.[Cl-].[Cl-].[Cl-].[Cl-].[Cl-].[Cl-].[O-2].[O-2].[Ru+3].[Ru+3].[Ru+4] [RR, Red Ruthenium, reference compound] |  | prevented |  |  |  | 
3 | Cc1ccc(S(=O)(=O)N2CCC3(CC2)C(=O)NCN3c2ccccc2)cc1 [compound 1, 1-phenyl-8-tosyl-1,3,8-triazaspiro[4.5]decan-4-one] | significantly inhibited |  |  |  |  | subcellular localization [3]: selective accumulation of the compound in the mitochondria; desensitization of the mPTP opening [4]: about 50%
4 | O=C1N=CN(c2ccc(Cl)cc2)C12CCN(Cc1ccccc1)CC2 [compound 5c, 8-benzyl-1-(4-chlorophenyl)-1,3,8-triazaspiro[4.5]dec-2-en-4-one] | did not reduce ATP levels | significantly more performing than compound 1 | prevent the release of Cyt.C | did not induce a significant reduction | some negative effect | 
5 | O=C1NCN(c2cccc(C(F)(F)F)c2)C12CCN(Cc1ccccc1)CC2 [compound 6g, 8-benzyl-1-(3-(trifluoromethyl)phenyl)-1,3,8-triazaspiro[4.5]decan-4-one] | did not reduce ATP levels | significantly more performing than compound 1 | prevent the release of Cyt.C |  |  | 
6 | O=C1NCN(c2ccccc2)C12CCN(S(=O)(=O)c1ccc(Cl)s1)CC2 [compound 10, 8-((5-chlorotiophen-2-yl)sulfonyl)-1-phenyl-1,3,8-triazaspiro[4.5]decan-4-one] | did not reduce ATP levels | significantly more performing than compound 1 | prevent the release of Cyt.C | did not induce a significant reduction | some negative effect | coronary perfusion pressure (CPP) [7, 8]: decrease; diastolic pressure (EDP) [7, 8]: decrease; diastolic pressure of the left ventricle (LVEDP) [7, 8]: increased; percentage of cardiomyocytes positive for TUNEL (apoptotic) ([7]; 10µM, hearts at the end of the procedure, 64% positive without compound): significantly reduced
